Results as given in patent US8822503B2, “2-pyridone compounds” (Taisho Pharmaceutical Co., Ltd, priority 2009, dated 2014).

Molecular target: T1, human liver GK (Homo sapiens, UniProt P35557)
T1 construct: GST (glutathione S-transferase) (N); made in house; host or cells: E. coli
T1 sequence (P35557 1-466 isoform P35557-2): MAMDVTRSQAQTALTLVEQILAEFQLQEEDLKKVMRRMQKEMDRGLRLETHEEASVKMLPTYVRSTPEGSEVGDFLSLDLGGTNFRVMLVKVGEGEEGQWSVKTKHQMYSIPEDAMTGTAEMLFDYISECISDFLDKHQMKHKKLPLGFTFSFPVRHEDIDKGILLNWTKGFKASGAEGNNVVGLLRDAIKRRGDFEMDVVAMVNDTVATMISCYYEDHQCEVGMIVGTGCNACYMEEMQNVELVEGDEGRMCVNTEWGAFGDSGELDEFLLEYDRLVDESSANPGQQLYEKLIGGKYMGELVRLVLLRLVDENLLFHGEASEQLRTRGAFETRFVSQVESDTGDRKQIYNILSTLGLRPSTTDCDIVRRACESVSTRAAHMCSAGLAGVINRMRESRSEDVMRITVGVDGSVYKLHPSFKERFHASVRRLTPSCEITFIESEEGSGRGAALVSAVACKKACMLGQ
Test: GK activation test
Assay type: biochemical
Conditions: test compound concentration needed to activate 50% of maximum activation ability; 4 mM 14C-labeled glucose, 2 mM ATP, room temperature, 20 minutes
Procedure, shortened: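 GST-tagged human liver GK from E. coli (0.24 μg/well) with 4 mM 14C-glucose, 2 mM ATP in Hepes-KOH pH 7.1, KCl, MgCl2, DTT, 1% DMSO, 20 min room temperature. Labeled glucose 6-phosphate captured on anion resin, eluted and counted. EC50 = concentration giving half of maximal activation.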

Row | SMILES | EC50
1 | CCc1ccc(/C(=C/[C@H]2CCC(=O)C2)c2ccc(S(=O)(=O)CCCN(CC)CC)c(Cl)c2)[nH]c1=O [Example 1-78, 6-{(E)-1-(3-Chloro-4-{[3-(diethylamino)propyl]sulfonyl}phenyl)-2-[(1S)-3-oxocyclopentyl]ethenyl}-3-ethylpyridin-2(1H)-one] | 0.01 to 0.5 µM
2 | CCN(CC)CCCOc1ccc(/C(=C\[C@H]2CCC(=O)C2)c2ccc(C3CC3)c(=O)[nH]2)cc1Cl [Example 1-79, 6-{(E)-1-{3-Chloro-4-[3-(diethylamino)propoxy]phenyl}-2-[(1S)-3-oxocyclopentyl]ethenyl}-3-cyclopropylpyridin-2(1H)-one] | 0.01 to 0.5 µM
3 | CCN(CC)CCCCOc1ccc(/C(=C\[C@H]2CCC(=O)C2)c2ccc(C3CC3)c(=O)[nH]2)cc1Cl [Example 1-80, 6-{(E)-1-{3-Chloro-4-[4-(diethylamino)butoxy]phenyl}-2-[(1S)-3-oxocyclopentyl]ethenyl}-3-cyclopropylpyridin-2(1H)-one] | 0.01 to 0.5 µM
4 | O=C1CC[C@H](/C=C(\c2ccc(OCCCO)c(Cl)c2)c2ccc(C(F)(F)F)c(=O)[nH]2)C1 [Example 1-81, 6-{(E)-1-[3-Chloro-4-(3-hydroxypropoxy)phenyl]-2-[(1S)-3-oxocyclopentyl]ethenyl}-3-(trifluoromethyl)pyridin-2(1H)-one] | 0.5 to 3 µM
5 | O=C1CC[C@H](/C=C(\c2ccc(SCCCO)c(Cl)c2)c2ccc(C(F)(F)F)c(=O)[nH]2)C1 [Example 1-82, 6-{(E)-1-{3-Chloro-4-[(3-hydroxypropyl)sulfanyl]phenyl}-2-[(1S)-3-oxocyclopentyl]ethenyl}-3-(trifluoromethyl)pyridin-2(1H)-one] | 0.01 to 0.5 µM
6 | CCN(CC)CCCOc1ccc(/C(=C\[C@H]2CCC(=O)C2)c2ccc(C(F)(F)F)c(=O)[nH]2)cc1Cl [Example 1-83, 6-{(E)-1-{3-Chloro-4-[3-(diethylamino)propoxy]phenyl}-2-[(1S)-3-oxocyclopentyl]ethenyl}-3-(trifluoromethyl)pyridin-2(1H)-one] | 0.5 to 3 µM
7 | CCN(CC)CCCSc1ccc(/C(=C\[C@H]2CCC(=O)C2)c2ccc(C(F)(F)F)c(=O)[nH]2)cc1Cl [Example 1-84, 6-{(E)-1-(3-Chloro-4-{[3-(diethylamino)propyl]sulfanyl}phenyl)-2-[(1S)-3-oxocyclopentyl]ethenyl}-3-(trifluoromethyl)pyridin-2(1H)-one] | 0.5 to 3 µM
8 | CSc1ccc(/C(=C\[C@H]2CCC(O)C2)c2ccc(C3CC3)c(=O)[nH]2)cc1Cl (stereo partly drawn) [Example 1-85, 6-{(E)-1-[3-Chloro-4-(methylsulfanyl)phenyl]-2-[(1S)-3-hydroxycyclopentyl]ethenyl}-3-cyclopropylpyridin-2(1H)-one] | 0.01 to 0.5 µM
9 | CCN(CC)CCCOc1ccc(/C(=C\[C@H]2CCC(O)C2)c2ccc(C(F)(F)F)c(=O)[nH]2)cc1Cl (stereo partly drawn) [Example 1-86, 6-{(E)-1-{3-Chloro-4-[3-(diethylamino)propoxy]phenyl}-2-[(1S)-3-hydroxycyclopentyl]ethenyl}-3-(trifluoromethyl)pyridin-2(1H)-one] | 0.5 to 3 µM
10 | CCN(CC)CCCOc1ccc(/C(=C\[C@H]2CCC(O)C2)c2ccc(C3CC3)c(=O)[nH]2)cc1Cl (stereo partly drawn) [Example 1-87, 6-{(E)-1-{3-Chloro-4-[3-(diethylamino)propoxy]phenyl}-2-[(1S)-3-hydroxycyclopentyl]ethenyl}-3-cyclopropylpyridin-2(1H)-one] | 0.5 to 3 µM
11 | COc1ccc(/C(=C\[C@H]2CC[C@@H](O)CC2)c2ccc(C3CC3)c(=O)[nH]2)cc1Cl [Example 1-88, 6-[(E)-1-(3-Chloro-4-methoxyphenyl)-2-(cis-4-hydroxycyclohexyl)ethenyl]-3-cyclopropylpyridin-2(1H)-one] | 0.5 to 3 µM
12 | COc1ccc(/C(=C\[C@H]2CC[C@H](O)CC2)c2ccc(C3CC3)c(=O)[nH]2)cc1Cl [Example 1-89, 6-[(E)-1-(3-Chloro-4-methoxyphenyl)-2-(trans-4-hydroxycyclohexyl)ethenyl]-3-cyclopropylpyridin-2(1H)-one] | 0.5 to 3 µM
13 | O=c1[nH]c(/C(=C/[C@H]2CC[C@H](O)CC2)c2ccc(SC3CC3)cc2)ccc1C(F)(F)F [Example 1-90, 6-[(E)-1-[4-(Cyclopropylsulfanyl)phenyl]-2-(trans-4-hydroxycyclohexyl)ethenyl]-3-(trifluoromethyl)pyridin-2(1H)-one] | 0.01 to 0.5 µM
14 | O=c1[nH]c(/C(=C/[C@H]2CC[C@H](O)CC2)c2ccc(S(=O)(=O)C3CC3)cc2)ccc1C(F)(F)F [Example 1-91, 6-[(E)-1-[4-(Cyclopropylsulfonyl)phenyl]-2-(trans-4-hydroxycyclohexyl)ethenyl]-3-(trifluoromethyl)pyridin-2(1H)-one] | 0.5 to 3 µM
15 | CSc1ccc(/C(=C\CCO)c2ccc(C3CC3)c(=O)[nH]2)cc1 [Example 1-92, 3-Cyclopropyl-6-{(1E)-4-hydroxy-1-[4-(methylsulfanyl)phenyl]but-1-en-1-yl}pyridin-2(1H)-one] | 3 to 10 µM
16 | CS(=O)(=O)c1ccc(/C(=C\CCO)c2ccc(C3CC3)c(=O)[nH]2)cc1 [Example 1-93, 3-Cyclopropyl-6-{(1E)-4-hydroxy-1-[4-(methylsulfonyl)phenyl]but-1-en-1-yl}pyridin-2(1H)-one] | 3 to 10 µM
17 | CSc1ccc(/C(=C\CCNC(C)=O)c2ccc(C3CC3)c(=O)[nH]2)cc1 [Example 1-94, N-{(3E)-4-(5-Cyclopropyl-6-oxo-1,6-dihydropyridin-2-yl)-4-[4-(methylsulfanyl)phenyl]but-3-en-1-yl}acetamide] | 3 to 10 µM
18 | CC(=O)NCC/C=C(\c1ccc(S(C)(=O)=O)cc1)c1ccc(C2CC2)c(=O)[nH]1 [Example 1-95, N-{(3E)-4-(5-Cyclopropyl-6-oxo-1,6-dihydropyridin-2-yl)-4-[4-(methylsulfonyl)phenyl]but-3-en-1-yl}acetamide] | 3 to 10 µM
19 | CSc1ccc(/C(=C\CCCO)c2ccc(C3CC3)c(=O)[nH]2)cc1 [Example 1-96, 3-Cyclopropyl-6-{(1E)-5-hydroxy-1-[4-(methylsulfanyl)phenyl]pent-1-en-1-yl}pyridin-2(1H)-one] | 0.5 to 3 µM
20 | CS(=O)(=O)c1ccc(/C(=C\CCCO)c2ccc(C3CC3)c(=O)[nH]2)cc1 [Example 1-97, 3-Cyclopropyl-6-{(1E)-5-hydroxy-1-[4-(methylsulfonyl)phenyl]pent-1-en-1-yl}pyridin-2(1H)-one] | 0.5 to 3 µM
21 | O=c1[nH]c(/C(=C/CCCO)c2ccc(SC3CC3)cc2)ccc1C(F)(F)F [Example 1-98, 6-{(1E)-1-[4-(Cyclopropylsulfanyl)phenyl]-5-hydroxypent-1-en-1-yl}-3-(trifluoromethyl)pyridin-2(1H)-one] | 3 to 10 µM
22 | O=c1[nH]c(/C(=C/CCCO)c2ccc(S(=O)(=O)C3CC3)cc2)ccc1C(F)(F)F [Example 1-99, 6-{(1E)-1-[4-(Cyclopropylsulfonyl)phenyl]-5-hydroxypent-1-en-1-yl}-3-(trifluoromethyl)pyridin-2(1H)-one] | 0.5 to 3 µM
23 | Cc1ccc(/C(=C/C2(CO)CC2)c2ccc(S(=O)(=O)C3CC3)cc2)[nH]c1=O [Example 1-100, 6-{(E)-1-[4-(Cyclopropylsulfonyl)phenyl]-2-[1-(hydroxymethyl)cyclopropyl]ethenyl}-3-methylpyridin-2(1H)-one] | 3 to 10 µM
24 | C[C@@H](/C=C(\c1ccc(S(=O)(=O)C2CC2)cc1)c1ccc(C(F)(F)F)c(=O)[nH]1)CO [Example 1-101, 6-{(1E,3S)-1-[4-(Cyclopropylsulfonyl)phenyl]-4-hydroxy-3-methylbut-1-en-1-yl}-3-(trifluoromethyl)pyridin-2(1H)-one] | 3 to 10 µM
25 | C[C@H](/C=C(\c1ccc(S(=O)(=O)C2CC2)cc1)c1ccc(C(F)(F)F)c(=O)[nH]1)CO [Example 1-102, 6-{(1E,3R)-1-[4-(Cyclopropylsulfonyl)phenyl]-4-hydroxy-3-methylbut-1-en-1-yl}-3-(trifluoromethyl)pyridin-2(1H)-one] | 0.5 to 3 µM
26 | O=c1[nH]c(/C(=C/C2CCCC2)c2ccc(SC3CC3)cc2)ccc1Cl [Example 1-103, 3-Chloro-6-{(E)-2-cyclopentyl-1-[4-(cyclopropylsulfanyl)phenyl]ethenyl}pyridin-2(1H)-one] | 0.01 to 0.5 µM
27 | O=c1[nH]c(/C(=C/C2CCCC2)c2ccc(S(=O)(=O)C3CC3)cc2)ccc1Cl [Example 1-104, 3-Chloro-6-{(E)-2-cyclopentyl-1-[4-(cyclopropylsulfonyl)phenyl]ethenyl}pyridin-2(1H)-one] | 0.01 to 0.5 µM
28 | CC(=O)Nc1ccc(/C(=C\C2CCCC2)c2ccc(Cl)c(=O)[nH]2)cc1 [Example 1-105, N-{4-[(E)-1-(5-Chloro-6-oxo-1,6-dihydropyridin-2-yl)-2-cyclopentylethenyl]phenyl}acetamide] | 0.5 to 3 µM
29 | NC(=O)Nc1ccc(/C(=C\C2CCCC2)c2ccc(Cl)c(=O)[nH]2)cc1 [Example 1-106, 1-{4-[(E)-1-(5-Chloro-6-oxo-1,6-dihydropyridin-2-yl)-2-cyclopentylethenyl]phenyl}urea] | 0.5 to 3 µM
30 | CC(C)c1ccc(/C(=C/[C@H]2CCC(=O)C2)c2ccc(S(C)(=O)=O)cc2)[nH]c1=O [Example 1-107, 6-{(E)-1-[4-(Methylsulfonyl)phenyl]-2-[(1S)-3-oxocyclopentyl]ethenyl}-3-(propan-2-yl)pyridin-2(1H)-one] | 0.01 to 0.5 µM
